Experiment [1] concerns the target protein kinases (human kinome) (Homo sapiens, UniProt Q15208). The class given is cell-based. Particulars: for logFC: STK38 (Q15208).
In experiment [2] the target is T1, protein kinases (human kinome) (Homo sapiens, UniProt Q16854).
T1 sequence (Q16854 40-277): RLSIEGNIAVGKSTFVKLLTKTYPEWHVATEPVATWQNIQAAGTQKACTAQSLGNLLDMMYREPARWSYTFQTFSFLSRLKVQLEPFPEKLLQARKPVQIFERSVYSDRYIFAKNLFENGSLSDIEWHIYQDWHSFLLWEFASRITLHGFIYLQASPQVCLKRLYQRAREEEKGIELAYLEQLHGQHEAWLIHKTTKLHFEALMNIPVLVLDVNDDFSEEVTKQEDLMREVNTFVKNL
The class given is cell-based. The note with it: DGUOK (Q16854).

Where two headings read alike, the source gives them in different places.

Sequence of protein kinases (human kinome) (Homo sapiens, UniProt Q15208) (Q15208 whole entry): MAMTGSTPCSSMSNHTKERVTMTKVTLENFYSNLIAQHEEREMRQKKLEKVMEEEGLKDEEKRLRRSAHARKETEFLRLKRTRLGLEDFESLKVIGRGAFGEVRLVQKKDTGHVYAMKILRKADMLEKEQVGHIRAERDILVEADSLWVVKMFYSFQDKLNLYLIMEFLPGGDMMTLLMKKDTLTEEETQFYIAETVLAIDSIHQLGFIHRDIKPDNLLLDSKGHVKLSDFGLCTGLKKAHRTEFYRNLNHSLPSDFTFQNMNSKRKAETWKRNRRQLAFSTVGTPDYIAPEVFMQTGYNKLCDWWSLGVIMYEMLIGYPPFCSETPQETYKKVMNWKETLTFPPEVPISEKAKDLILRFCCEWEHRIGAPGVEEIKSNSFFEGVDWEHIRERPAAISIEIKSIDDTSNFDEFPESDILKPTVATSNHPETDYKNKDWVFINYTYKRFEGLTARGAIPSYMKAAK

Turning to `NC(=O)c1c(F)cccc1Nc1nc(Nc2ccc(S(=O)(=O)NCCOCCOCCOCCOCCNc3cccc4c3C(=O)N(C3CCC(=O)NC3=O)C4=O)cc2)ncc1Br` (stereo not drawn) [TMX.02.138], in experiment [1] (experiment wp146), the logFC was −0.3476 and the “logFC of STK38 (Q15208)” value was −0.3476.

On to `Cc1cc(Nc2ncc(Br)c(Nc3cccc(F)c3C(N)=O)n2)ccc1S(=O)(=O)NCCOCCOCCOCCOCCNc1cccc2c1C(=O)N(C1CCC(=O)NC1=O)C2=O` (stereo not drawn) [TMX.02.174], for which, in experiment [1] (experiment wp146), the logFC is on record as −0.4117 and the “logFC of STK38 (Q15208)” value is reported as −0.4117.

In experiment [2] (experiment wp147, 4 uM), `CC(C)(C)c1nc(-c2cccc(NS(=O)(=O)c3c(F)cccc3F)c2F)c(-c2ccnc(NCCOCCNC(=O)CCOCCOCCNc3cccc4c3C(=O)N(C3CCC(=O)NC3=O)C4=O)n2)s1` (stereo not drawn) [DD.03.106] gave a logFC of −0.5418.

`CC(C)S(=O)(=O)c1ccccc1Nc1nc(Nc2ccc(N3CCN(CCOCCOCCC(=O)NCCNc4cccc5c4CN(C4CCC(=O)NC4=O)C5=O)CC3)cc2)ncc1Cl` (stereo not drawn) [TL13.97]: in experiment [1] (experiment wp137), the logFC is given as −0.3912 and the “logFC of STK38 (Q15208)” value is listed as −0.3912.

For the compound `CC(C)(C)c1nc(-c2cccc(NS(=O)(=O)c3c(F)cccc3F)c2F)c(-c2ccnc(NCCOCCNC(=O)CCOCCOCCNc3cccc4c3CN(C3CCC(=O)NC3=O)C4=O)n2)s1` (stereo not drawn) [DD.03.107], the logFC in experiment [2] (experiment wp147, 1 uM) is −0.5245; in experiment [2] (experiment wp147, 4 uM), −0.9678.

(Values after US20240269139A1, “COMPOUNDS FOR TARGETED PROTEIN DEGRADATION OF KINASES” (DANA-FARBER CANCER INSTITUTE, INC., priority 2020, published 2024).)
